One experiment relates to U87MG astrocytoma. The experiment in a line: Immuno-slotblot assay for secreted BDNF, astrocytoma conditioned media. In kind it is cell-based, human. The conditions noted are these: 1 μM, 5 μM, 10 μM; astrocyte conditioned media; vs non-treated and DMSO. Here is the method:
Human embryonic kidney 293T (HEK293T) cells, U87MG astrocytoma and the human oligodendrocyte cell line MO3-13 were grown in Dubelco Minimal Eagle Media (DMEM) (Invitrogen, Carlsbad, Calif., USA) supplemented with 5% heat inactivated fetal bovine serum. Cells were grown to 70% confluence prior to treatment. HEK293T cells were treated individually with […] latanoprost, unoprostone, bimatoprost, fluprostenol, PGE2, and PGF2α in serum-free DMEM. Cells were exposed to drug for 3 hours at 37° C. in a 5% CO2 incubator. U87MG cells were grown to 70% confluence prior to treatment. […]
Cell culture media from cells that were not treated or treated with DMSO, 1, 5 or 10 μM latanoprost treated was collected in 15-mL screw cap polypropylene tubes from cell culture dishes. […] The relative amount of BDNF secreted by U87MG astrocytoma and MO3-13 oligodendrocyte cell lines were determined by an immune-slotblot method in which 200 μL of conditioned media was applied in triplicate to nitrocellulose membrane pre-wet in water in a Biodot (SF) ultrafiltration unit (Bio-Rad Laboratories, Mississauga, ON, Canada) under vacuum. […] After washing the membrane as above, the bound secondary antibody was detected by ECL Advance™ Western blot HRP substrate (GE Healthcare) using a ChemiDoc™ MP Imaging System (Bio-Rad Laboratories). The relative amount of BDNF was determined by using ImageLab™ software (BioRad). […]

A further experiment relates to U87MG cells. The experiment in a line: Bipolar disorder biomarkers in glioblastoma U87 cell line (Western blot). The note with it: 1 μM, 5 μM, 10 μM, vs untreated cells. The experiment is classed as cell-based, human. Here is the method:
Human embryonic kidney 293T (HEK293T) cells, U87MG astrocytoma and the human oligodendrocyte cell line MO3-13 were grown in Dubelco Minimal Eagle Media (DMEM) (Invitrogen, Carlsbad, Calif., USA) supplemented with 5% heat inactivated fetal bovine serum. Cells were grown to 70% confluence prior to treatment. HEK293T cells were treated individually with […] latanoprost, unoprostone, bimatoprost, fluprostenol, PGE2, and PGF2α in serum-free DMEM. Cells were exposed to drug for 3 hours at 37° C. in a 5% CO2 incubator. U87MG cells were grown to 70% confluence prior to treatment. Cells were treated with either DMSO vehicle (NT) or individually with 1, 5 and 10 μM latanoprost in DMEM lacking fetal bovine serum. Cells were exposed to treatments for 6 hours at 37° C. in a 5% CO2 incubator. The human oligodendrocyte cell line MO3-13 was grown and differentiated according to the methods described in McLaurin et al. (McLaurin, J., Trudel, G. C., Shaw, I. T., Antel, J. P., and Cashman, N. R., J. Neurobiol., 26: 283-293, 1995). On the third day of serum starvation, cells were treated with either DMSO vehicle (NT) or individually with 1, 5 and 10 μM latanoprost. Cells were exposed to treatments for 6 hours at 37° C. in a 5% CO2 incubator.
For detection of CREB and Serine-133 (S133)-phosphorylated CREB, serotonin receptor 5HT2A, TCF/LEF1, BDNF and TNF-total protein extracts were prepared from cell cultures using a sintered glass tissue homogenizer (Wheaton, Millville, N.J., USA) in phosphate-buffered saline (PBS), pH 7.5, 3M urea. For detection of β-catenin, cell cultures were washed with PBS, trypsinized, and pelleted at 1,000 rpm for 4 minutes. The cell pellets were washed and resuspended in cold hypotonic buffer consisting of 10 mM HEPES (pH 7.5), 1.5 mM MgCl2, 10 mM KCl, 0.5 mM DTT, and EDTA-free protease inhibitor (Roche, Laval, QC, Canada) in an ice bath for 5 minutes. The mixture was then homogenized using a dounce homogenizer and the cellular debris was pelleted by centrifugation at 4° C. Cytoplasmic fractions were recovered and used for assaying β-catenin.
Protein concentrations were determined by the Peterson method (Peterson, Analyt. Biochem., 83: 346-356, 1977). Proteins (20 μg/lane) were loaded onto SDS-polyacrylamide gels and separated by electrophoresis. Proteins in gels were transferred onto PVDF membranes and processed for antibody reactions. To detect CREB, S133-phosphorylated CREB, and GAPDH loading controls, antibodies were diluted in 2% ECL Advance™ blocking reagent (GE Healthcare, Mississauga, ON, Canada) and solubilized in PBS-Tween20. Membranes were probed overnight at 4° C. Membranes were washed four times with PBS-Tween20 and labeled for 1 hour at 20° C. with secondary antibodies conjugated to horseradish peroxidase (HRP). The membrane was washed four more times with PBS-Tween20 and HRP activity was developed using Advance™ chemiluminescence (ECL) reagent (GE Healthcare, Mississauga, ON, Canada) according to the manufacturer's instructions. PVDF membranes were exposed to X-ray film.
We next examined the effects of latanoprost treatment (1 μM, 5 μM, and 10 μM) on other bipolar disorder biomarkers in glioblastoma U87 cell line.
For orientation: In western blotting, separated proteins are transferred to a membrane and probed.

For `CC(C)OC(=O)CCC/C=C\C[C@@H]1[C@@H](CC[C@@H](O)CCc2ccccc2)[C@H](O)C[C@@H]1O` [latanoprost, propan-2-yl-(Z)-7-[(1R,2R,3R,5S)-3,5-dihydroxy-2-[(3R)-3-hydroxy-5-phenylpentyl]cyclopentyl]-hept-5-enoate], in the experiment on U87MG astrocytoma, the “amount of BDNF secreted” value is recorded as “increased significantly”. Besides, in the experiment on U87MG cells, the “levels of BDNF” value is given as “increased levels”, the “levels of inflammatory cytokine TNF-α” value is listed as “reduced levels”, the “levels of serotonin receptor 5HT2A” value was “increased levels” and the “levels of transcription factor TCF/LEF1” value is on record as “increased levels”. Further, in the experiment with U87MG cells, the “phosphorylation at Ser133 on CREB” value is listed as “increased levels” and the “total level of CREB protein” value was “remaining relatively constant”.

The values are drawn from patent publication US9259409B2, “Compositions comprising a prostaglandin for treating neuropsychiatric conditions” (Inceptum Research & Therapeutics, Inc., priority 2011, dated 2016).
